Experimental data as given in patent publication US9012489B2, “Phenyl-3-aza-bicyclo[3.1.0]hex-3-yl-methanones and the use thereof as medicament” (Boehringer Ingelheim International GmbH, priority 2011, dated 2015).

Biological target: T1, GlyT1 transporter (Homo sapiens, UniProt P48067)
T1 construct: endogenously expressing the GlyT1 transporter; host or cells: SK-N-MC human neuroblastoma cells
T1 sequence (P48067 1-706): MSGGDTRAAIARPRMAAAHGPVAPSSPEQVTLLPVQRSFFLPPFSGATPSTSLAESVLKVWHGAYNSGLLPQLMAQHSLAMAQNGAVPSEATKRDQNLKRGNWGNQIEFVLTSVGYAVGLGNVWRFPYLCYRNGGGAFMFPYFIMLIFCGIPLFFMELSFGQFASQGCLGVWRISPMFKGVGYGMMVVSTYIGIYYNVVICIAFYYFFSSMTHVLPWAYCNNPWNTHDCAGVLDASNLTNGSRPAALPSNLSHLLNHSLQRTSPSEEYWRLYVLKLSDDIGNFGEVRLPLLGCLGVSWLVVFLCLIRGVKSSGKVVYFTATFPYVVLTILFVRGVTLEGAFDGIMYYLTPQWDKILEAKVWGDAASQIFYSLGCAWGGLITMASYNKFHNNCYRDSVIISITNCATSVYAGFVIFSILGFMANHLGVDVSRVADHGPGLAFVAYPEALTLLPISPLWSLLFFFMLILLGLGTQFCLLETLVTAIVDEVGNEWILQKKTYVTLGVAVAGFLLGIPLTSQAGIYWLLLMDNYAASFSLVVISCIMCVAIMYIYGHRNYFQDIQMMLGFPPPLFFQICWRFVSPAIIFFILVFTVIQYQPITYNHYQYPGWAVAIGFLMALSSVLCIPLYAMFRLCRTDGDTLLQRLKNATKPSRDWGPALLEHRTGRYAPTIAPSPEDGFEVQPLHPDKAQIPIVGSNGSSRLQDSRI
Assay: GlyT1 assay: 3H-glycine uptake into SK-N-MC cells (Cytostar-T format)
Assay type: cell-based
Conditions: glycine uptake in human SK-N-MC cells endogenously expressing GlyT1; 500 nM glycine, 1% DMSO, signal recorded over 60 min
Summary of the method: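 Endogenous GlyT1 in human SK-N-MC cells, confluent after 16-18 h, in HBSS with 5 mM alanine. Compounds preincubated about 5-10 min, then 500 nM glycine (half ³H) added, 1% DMSO. Scintillation-proximity uptake recorded kinetically over 60 min; IC50 from linear-range slopes over 8 concentrations, nonspecific uptake defined with 10 μM RG-1678.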

`C[C@H](Oc1ccc(S(C)(=O)=O)cc1C(=O)N1CC2CC2(c2csc(C(F)(F)F)n2)C1)C(F)(F)F` (single isomer, unassigned) [Example 28, [5-Methanesulfonyl-2-(2,2,2-trifluoro-1-methyl-ethoxy)-phenyl]-[1-(2-trifluoromethyl-thiazol-4-yl)-3-aza-bicyclo[3.1.0]hex-3-yl]-methanone] was tested. Which IC50 did it give?
The IC50 was 1.44 µM.

Which IC50 does the source give for `C[C@H](Oc1ccc(S(C)(=O)=O)cc1C(=O)N1CC2CC2(c2cc(C(F)(F)F)on2)C1)C(F)(F)F` (single isomer, unassigned) [Example 48, [5-Methanesulfonyl-2-(2,2,2-trifluoro-1-methyl-ethoxy)-phenyl]-[1-(5-trifluoromethyl-isoxazol-3-yl)-3-aza-bicyclo[3.1.0]hex-3-yl]-methanone] here?
Its IC50 is 0.886 µM.

With `C[C@H](Oc1ccc(-c2ncco2)cc1C(=O)N1CC2CC2(c2noc(C(F)(F)F)n2)C1)C(F)(F)F` (mixture of isomers) [Example 100, [5-Oxazol-2-yl-2-(2,2,2-trifluoro-1-methyl-ethoxy)-phenyl]-[1-(5-trifluoromethyl-[1,2,4]oxadiazol-3-yl)-3-aza-bicyclo[3.1.0]hex-3-yl]-methanone] as the compound, how does the IC50 read?
The IC50 was 0.916 µM.

With `CC1(C)Cc2cc(S(C)(=O)=O)cc(C(=O)N3CC4CC4(c4noc(C(F)(F)F)n4)C3)c2O1` (racemic) [Example 99, (5-Methanesulfonyl-2,2-dimethyl-2,3-dihydro-benzofuran-7-yl)-[1-(5-trifluoromethyl-[1,2,4]oxadiazol-3-yl)-3-aza-bicyclo[3.1.0]-3-yl]-methanone] as the compound, how does the IC50 read?
The IC50 was 0.291 µM.

How did the IC50 turn out when `C[C@H](Oc1ccc(S(C)(=O)=O)cc1C(=O)N1CC2CC2(c2nccc(C(F)(F)F)n2)C1)C(F)(F)F` (single isomer, unassigned) [Example 16, [5-Methanesulfonyl-2-(2,2,2-trifluoro-1-methyl-ethoxy)-phenyl]-[1-(4-trifluoromethyl-pyrimidin-2-yl)-3-aza-bicyclo[3.1.0]hex-3-yl]-methanone] was run?
Its IC50 is 0.01 µM.

With `C[C@@H](Oc1ccc(S(C)(=O)=O)cc1C(=O)N1CC2CC2(c2noc(C3CC3(F)F)n2)C1)C(F)(F)F` (mixture of isomers) [Example 64, {1-[5-(2,2-Difluoro-cyclopropyl)-[1,2,4]oxadiazol-3-yl]-3-aza-bicyclo[3.1.0]hex-3-yl}-[5-methanesulfonyl-2-(2,2,2-trifluoro-1-methyl-ethoxy)-phenyl]-methanone] as the compound, how does the IC50 read?
The IC50 was 0.004 µM.

With `CCS(=O)(=O)c1ccc(O[C@@H](C)C(F)(F)F)c(C(=O)N2CC3CC3(c3nccc(C(F)(F)F)n3)C2)c1` (single isomer, unassigned) [Example 75, [5-Ethanesulfonyl-2-(2,2,2-trifluoro-1-methyl-ethoxy)-phenyl]-[1-(4-trifluoromethyl-pyrimidin-2-yl)-3-aza-bicyclo[3.1.0]hex-3-yl]-methanone] as the compound, how does the IC50 read?
Its IC50 is 0.11 µM.

How did the IC50 turn out when `C[C@@H](Oc1ccc(S(C)(=O)=O)cc1C(=O)N1CC2CC2(c2noc(C3CC3)n2)C1)C(F)(F)F` (single isomer, unassigned) [Example 44, [1-(5-Cyclopropyl-[1,2,4]oxadiazol-3-yl)-3-aza-bicyclo[3.1.0]hex-3-yl]-[5-methanesulfonyl-2-(2,2,2-trifluoro-1-methyl-ethoxy)-phenyl]-methanone] was run?
The IC50 was 0.397 µM.

Which IC50 does the source give for `C[C@@H](Oc1ccc(S(C)(=O)=O)cc1C(=O)N1CC2CC2(c2noc(C3(C(F)(F)F)CC3)n2)C1)C(F)(F)F` (single isomer, unassigned) [Example 69, [5-Methanesulfonyl-2-(2,2,2-trifluoro-1-methyl-ethoxy)-phenyl]-{1-[5-(1-trifluoromethyl-cyclopropyl)-[1,2,4]oxadiazol-3-yl]-3-aza-bicyclo[3.1.0]hex-3-yl}-methanone] here?
The IC50 was 0.003 µM.

`CS(=O)(=O)c1ccc(O[C@@H]2CCOC2)c(C(=O)N2CC3CC3(c3noc(C(F)(F)F)n3)C2)c1` (mixture of isomers) [Example 138, [5-Methanesulfonyl-2-(tetrahydro-furan-3-yloxy)-phenyl]-[1-(5-trifluoromethyl-[1,2,4]oxadiazol-3-yl)-3-aza-bicyclo[3.1.0]hex-3-yl]-methanone] was tested. Which IC50 did it give?
Its IC50 is 0.261 µM.

For `C[C@H](Oc1ccc(S(C)(=O)=O)cc1C(=O)N1CC2CC2(c2ncccn2)C1)C(F)(F)F` (mixture of isomers) [Example 14, [5-Methanesulfonyl-2-(2,2,2-trifluoro-1-methyl-ethoxy)-phenyl]-(1-pyrimidin-2-yl-3-aza-bicyclo[3.1.0]hex-3-yl)-methanone], which IC50 is on record?
The IC50 was 0.067 µM.

`CCS(=O)(=O)c1ccc(O[C@H](C)C(F)(F)F)c(C(=O)N2CC3CC3(c3noc(C(F)(F)F)n3)C2)c1` (single isomer, unassigned) [Example 94, [5-Ethanesulfonyl-2-(2,2,2-trifluoro-1-methyl-ethoxy)-phenyl]-[1-(5-trifluoromethyl-[1,2,4]oxadiazol-3-yl)-3-aza-bicyclo[3.1.0]hex-3-yl]-methanone] was tested. Which IC50 did it give?
The IC50 was 2.91 µM.

For `C[C@H](Oc1ccc(S(C)(=O)=O)cc1C(=O)N1CC2CC2(c2cccc(C(F)(F)F)n2)C1)C(F)(F)F` (single isomer, unassigned) [Example 56, [5-Methanesulfonyl-2-(2,2,2-trifluoro-1-methyl-ethoxy)-phenyl]-[1-(6-trifluoromethyl-pyridin-2-yl)-3-aza-bicyclo[3.1.0]hex-3-yl]-methanone], which IC50 is on record?
The IC50 was 0.233 µM.

How did the IC50 turn out when `Cc1cnc(C23CC2CN(C(=O)c2cc(S(C)(=O)=O)ccc2O[C@@H](C)C(F)(F)F)C3)o1` (mixture of isomers) [Example 21, [5-Methanesulfonyl-2-(2,2,2-trifluoro-1-methyl-ethoxy)-phenyl]-[1-(5-methyl-oxazol-2-yl)-3-aza-bicyclo[3.1.0]hex-3-yl]-methanone] was run?
Its IC50 is 0.021 µM.

With `C[C@H](Oc1ccc(S(C)(=O)=O)cc1C(=O)N1CC2CC2(c2noc(C(F)(F)F)n2)C1)C(F)(F)F` (single isomer, unassigned) [Example 2, [5-Methanesulfonyl-2-(2,2,2-trifluoro-1-methyl-ethoxy)-phenyl]-[1-(5-trifluoromethyl-[1,2,4]oxadiazol-3-yl)-3-aza-bicyclo[3.1.0]hex-3-yl]-methanone] as the compound, how does the IC50 read?
The IC50 was 0.018 µM.

For `CCS(=O)(=O)c1ccc(O[C@H](C)C(F)(F)F)c(C(=O)N2CC3CC3(c3nccc(C(F)(F)F)n3)C2)c1` (mixture of isomers) [Example 76, [5-Ethanesulfonyl-2-(2,2,2-trifluoro-1-methyl-ethoxy)-phenyl]-[1-(4-trifluoromethyl-pyrimidin-2-yl)-3-aza-bicyclo[3.1.0]hex-3-yl]-methanone], which IC50 is on record?
The IC50 was 0.01 µM.

For `CS(=O)(=O)c1ccc(O[C@@H]2CCOC2)c(C(=O)N2CC3CC3(c3noc(C(F)(F)F)n3)C2)c1` (single isomer, unassigned) [Example 140, [5-Methanesulfonyl-2-(tetrahydro-furan-3-yloxy)-phenyl]-[1-(5-trifluoromethyl-[1,2,4]oxadiazol-3-yl)-3-aza-bicyclo[3.1.0]hex-3-yl]-methanone], which IC50 is on record?
The IC50 was 3 µM.

How did the IC50 turn out when `CCS(=O)(=O)c1ccc(O[C@H](C)C(F)(F)F)c(C(=O)N2CC3CC3(c3noc(C(F)(F)F)n3)C2)c1` (single isomer, unassigned) [Example 93, [5-Ethanesulfonyl-2-(2,2,2-trifluoro-1-methyl-ethoxy)-phenyl]-[1-(5-trifluoromethyl-[1,2,4]oxadiazol-3-yl)-3-aza-bicyclo[3.1.0]hex-3-yl]-methanone] was run?
The IC50 was 0.011 µM.

Which IC50 does the source give for `Cc1nc(C23CC2CN(C(=O)c2cc(S(C)(=O)=O)ccc2O[C@H](C)C(F)(F)F)C3)no1` (single isomer, unassigned) [Example 42, [5-Methanesulfonyl-2-(2,2,2-trifluoro-1-methyl-ethoxy)-phenyl]-[1-(5-methyl-[1,2,4]oxadiazol-3-yl)-3-aza-bicyclo[3.1.0]hex-3-yl]-methanone] here?
The IC50 was 0.006 µM.

`Cc1c(C23CC2CN(C(=O)c2cc(S(C)(=O)=O)ccc2O[C@H](C)C(F)(F)F)C3)noc1C(F)(F)F` (single isomer, unassigned) [Example 161] was tested. Which IC50 did it give?
Its IC50 is 0.009 µM.

For `C[C@H](Oc1ccc(C#N)cc1C(=O)N1CC2CC2(c2noc(C(F)(F)F)n2)C1)C(F)(F)F` (single isomer, unassigned) [Example 90, 4-(2,2,2-Trifluoro-1-methyl-ethoxy)-3-[1-(5-trifluoromethyl-[1,2,4]oxadiazol-3-yl)-3-aza-bicyclo[3.1.0]hexane-3-carbonyl]-benzonitrile], which IC50 is on record?
The IC50 was 2.25 µM.

For `Cc1nc(C23CC2CN(C(=O)c2cc(S(C)(=O)=O)ccc2O[C@@H](C)C(F)(F)F)C3)no1` (single isomer, unassigned) [Example 7, [5-Methanesulfonyl-2-(2,2,2-trifluoro-1-methyl-ethoxy)-phenyl]-[1-(5-methyl-[1,2,4]oxadiazol-3-yl)-3-aza-bicyclo[3.1.0]hex-3-yl]-methanone], which IC50 is on record?
The IC50 was 0.004 µM.
